Literature values as cited in article PMC3449305 (Bioorganic & medicinal chemistry, 2011).

What was measured:
[1] = tested on: CNS; conditions: rodents
[2] = rats

Structure (SMILES) | CNS effect in BOLD imaging [1] | blood-brain barrier penetration [2]
C[C@@H](NC(=O)[C@@H](CC(=O)N1CCC(N2CCCCC2)CC1)N1C(=O)[C@@H](N2C(=O)OC[C@@H]2c2ccccc2)[C@H]1/C=C/c1cccc(I)c1)c1ccccc1 [Compound 11a, (R)-4-([1,4′-Bipiperidin]-1′-yl)-2-((2R,3S)-2-((E)-3-iodostyryl)-4-oxo-3-((S)-2-oxo-4-phenyloxazolidin-3-yl)azetidin-1-yl)-4-oxo-N-((R)-1-phenylethyl)butanamide] | CNS modulatory effect | 
CC(NC(=O)C(CC(=O)N1CCC(N2CCCCC2)CC1)N1C(=O)C(N2C(=O)OCC2c2ccccc2)C1C=Cc1ccccc1)c1ccccc1 (centres unmarked) [SRX246] |  | crosses the blood–brain barrier
